For orientation: inhibition means how much of the control response was suppressed. A higher inhibition goes with a strong effect. For orientation: inhibition in vivo means how much of the control response was suppressed. As a reminder, the ED50 is the midpoint of the dose-response relation. What is called IC50 is the midpoint of a concentration-inhibition curve. A high value points to weaker potency.

The values below come from ChEMBL document CHEMBL4342407, “Thieno[2,3-d]pyrimidine as a promising scaffold in medicinal chemistry: Recent advances” (Bioorg Med Chem, 2019).

Data set [1] concerns HepG2. Briefly: Antiproliferative activity against human HepG2 at 50 ug/ml after 48 hrs by MTT assay. The class given is functional. The settings on record: HepG2, 48 h. In general terms: Formazan colour is commonly taken as a measure of viable cells.
Data set [2] relates to ECa-109 cell line. Briefly: Antiproliferative activity against human EC109 at 50 ug/ml after 48 hrs by MTT assay. The class given is functional. The following applies: ECa-109, 48 h.
Data set [3] relates to MGC-803. Briefly: Antiproliferative activity against human MGC803 at 50 ug/ml after 48 hrs by MTT assay. The class given is functional. The settings on record: MGC-803, 48 h.
Data set [4] has as its system Rattus norvegicus. Nature of the data set: Antiinflammatory activity in Wistar rat assessed as inhibition of cotton pellet-induced granuloma at 75 mg/kg, po administered daily for 7 days and measured on day 8 relative to control. It counts as functional.
Data set [5] concerns Mus musculus. Nature of the data set: Antiinflammatory activity in Swiss mouse assessed as inhibition of TPA-induced ear edema at 1 mg/ear applied topically and measured 4 hrs post-TPA challenge relative to control. The class given is functional.
Data set [6] deals with Rattus norvegicus. Nature of the data set: Antiinflammatory activity in po dosed Wistar rat assessed as reduction in carrageenan-induced paw edema pretreated for 1 hr followed by carrageenan challenge and measured over 2 to 4 hrs post carrageenan challenge by plethysmography. The class given is functional. Background: Carrageenan injected into the paw causes an acute inflammation.

The test system of data set [7] is Rattus norvegicus. Briefly: Antiinflammatory activity in Wistar rat model of Freund's adjuvant-induced arthritis assessed as inhibition of arthritis by measuring reduction in paw volume at 75 mg/kg, po administered once daily for 8 days starting from day 7 post Freund's adjuvant treatment and measured after 18 days by mercury plethysmography relative to control. It counts as functional.

The subject of data set [8] is Candida albicans. Briefly: […] activity against Candida albicans assessed as zone inhibition at 500 ug/ml by cup plate agar diffusion method. It counts as functional. For orientation: In agar diffusion tests the substance spreads into inoculated agar from a disc or well.
Data set [9] deals with Rattus norvegicus. Briefly: Anti-ulcer activity in Wistar albino rat assessed as reduction in pylorus ligation induced ulcer at 250 mg/kg, ip pretreated for 1 hr followed by pylorus ligation and measured at 4 hrs post ligation. It counts as functional.
Data set [10] in a line: Ulcerogenic activity in Wistar albino rat assessed as ulcer index at 250 mg/kg, ip pretreated for 1 hr followed by pylorus ligation and measured at 4 hrs post ligation. It counts as toxicity, organism-based. The following applies: in vivo.
Data set [11] deals with Rattus norvegicus. Nature of the data set: Antiinflammatory activity in Sprague-Dawley rat assessed as protection against carrageenan-induced edema at 40 mg/kg, po pretreated for 1 hr followed by carrageenan challenge and measured after 3 hrs by mercury plethysmometer relative to control. The class given is functional.
Data set [12] concerns Escherichia coli. Briefly: Antibacterial activity against Escherichia coli assessed as zone inhibition at 500 ug/ml by cup plate agar diffusion method. The following applies: read-out: IZ. The class given is functional.
Data set [13] deals with Pseudomonas aeruginosa. Briefly: Antibacterial activity against Pseudomonas aeruginosa assessed as zone inhibition at 500 ug/ml by cup plate agar diffusion method. The following applies: read-out: IZ. The class given is functional.
In data set [14] the test system is Staphylococcus aureus. Briefly: Antibacterial activity against Staphylococcus aureus assessed as zone inhibition at 500 ug/ml by cup plate agar diffusion method. The following applies: read-out: IZ. The class given is functional.
Data set [15] has as its system Bacillus subtilis. Briefly: Antibacterial activity against Bacillus subtilis assessed as zone inhibition at 500 ug/ml by cup plate agar diffusion method. The class given is functional. The settings on record: read-out: IZ.
For data set [16], the system named is HepG2. Briefly: Antiproliferative activity against human HepG2 cells by MTT assay. The class given is functional, cell-based.
The test system of data set [17] is MCF7. Nature of the data set: Antiproliferative activity against human MCF7 by MTT assay. It counts as functional, cell-based.
Data set [18] deals with HEp-2. Briefly: Antiproliferative activity against human Hep2 after 24 hrs by MTT assay. The class given is functional, cell-based. The settings on record: HEp-2, 24 h.
Data set [19] has as its system PC-3. Nature of the data set: Antiproliferative activity against human PC3 after 24 hrs by MTT assay. The class given is functional, cell-based. The settings on record: PC-3, 24 h.
For data set [20], the system named is MCF7. Nature of the data set: Antiproliferative activity against human MCF7 after 24 hrs by MTT assay. It counts as functional, cell-based. The settings on record: MCF7, 24 h.
For data set [21], the system named is HepG2. Nature of the data set: Antiproliferative activity against human HepG2 after 24 hrs by MTT assay. The settings on record: HepG2, 24 h. The class given is functional, cell-based.
Data set [22] relates to HeLa. Briefly: Antiproliferative activity against human HeLa after 24 hrs by MTT assay. The class given is functional, cell-based.

As for `CCOP(=O)(OCC)C(Nn1c(C)nc2sc(CC)cc2c1=O)c1ccccc1` (configuration not stated), the figures for the inhibition at 50 µg/mL in data set [1], in data set [2] and in [3] were 66%, 66.3% and 50.3%, respectively.

In the case of `CN1C(C(=O)Nc2ccccn2)=C(O)c2ccccc2S1(=O)=O` [PIROXICAM], the inhibition in vivo at 75 mg/kg was 67.9% in data set [4] and 51.6% in data set [7]. In addition, the “inhibition (INH)” value in data set [5] stood at 12.2%. In [6], the 50% effective dose (ED50) came to 7.8 mg/kg.

Take `CCc1cc2c(=O)n(/N=C/c3ccccc3)c(C)nc2s1`: the inhibition at 50 µg/mL was found to be 57% in data set [1], 51.4% in [2] and 74.6% in data set [3].

With `CCc1cc2c(=O)n(NC(c3ccc([N+](=O)[O-])cc3)P(=O)(OC(C)C)OC(C)C)c(C)nc2s1` (configuration not stated), the inhibition at 50 µg/mL in data set [1] worked out at 58.1%; in data set [2], 58.5%; in data set [3], 84.3%.

Consider `CCc1cc2c(=O)n(NC(c3cccc([N+](=O)[O-])c3)P(=O)(OC(C)C)OC(C)C)c(C)nc2s1` (configuration not stated), for which the inhibition at 50 µg/mL in data set [1] was 90.8%; in data set [2], 45.3%; in [3], 63.6%.

As to NYSTATIN, the inhibition zone (IZ) in data set [8] was determined as 20.8 mm.

For `COc1ccc(C2=NC3SC=C([C@H]4CC[C@H]5[C@@H]6CC=C7CC(O)CC[C@]7(C)[C@H]6CC[C@]45C)C3C(=O)N2N)cc1` (some centres not stated), the inhibition in vivo at 250 mg/kg in [9] stood at 91.9%. Besides, in data set [10], the UI is 0.29. In [11], the Activity turned out to be 92%.

As to `CCOP(=O)(OCC)C(Nn1c(C)nc2sc(CC)cc2c1=O)c1ccc([N+](=O)[O-])cc1` (configuration not stated), the inhibition at 50 µg/mL in data set [1] turned out to be 61.1%; in data set [2] it was 54%; in [3] it was 59.8%.

Regarding `CC1(C)S[C@@H]2[C@H](NC(=O)[C@H](N)c3ccccc3)C(=O)N2[C@H]1C(=O)O` [AMPICILLIN], the zone of inhibition at 500 µg/mL in data set [12] is 25 mm; in data set [13], 21 mm; in data set [14], 22 mm; in data set [15], 24 mm.

On to `FC(F)(F)c1nc(NCc2ccccc2)c2c3c(sc2n1)CCC3`, for which the IC50 in data set [16] came out at 13.5 µM; in [17] it was 11.8 µM.

Consider `Cc1c(C(=O)/C=C/c2cc(Br)cs2)sc2nc(S)n(-c3ccccc3)c(=O)c12`, for which the IC50 in data set [18] is 31.3 µM; in data set [19] it was 27.7 µM; in [20], 25.8 µM; in data set [21], 30.1 µM; in data set [22], 17.8 µM.

As for `C[C@]12CC[C@H]3[C@@H](CC=C4C[C@H](O)CC[C@@]43C)[C@@H]1CC[C@@H]2c1csc(N)c1-c1nnc(SCC(=O)c2ccccc2)n1-c1ccccc1`, the inhibition in vivo at 250 mg/kg in data set [9] turned out to be 76.9%. Moreover, the UI in data set [10] is listed as 0.83. For the same compound, the Activity in data set [11] was 99%.

`Nc1c(C(=O)Nc2ccc(Cl)cc2)sc2nc(N3CCOCC3)nc(-c3ccccc3)c12`: the values for the IC50 in data set [20] and in [22] were 18.9 µM and 50 µM, respectively.

Consider `COc1ccc(/C=C/C(=O)c2sc3nc(S)n(-c4ccccc4)c(=O)c3c2C)cc1`, for which the half-maximal inhibitory concentration (IC50) in data set [18] was determined as 39.5 µM; in [19] it was 28.9 µM; in [20] it was 28.9 µM; in data set [21], 32.8 µM; in data set [22], 22.7 µM.

On to `C[C@]12CC[C@H]3[C@@H](CC=C4CC(O)CC[C@@]43C)[C@@H]1CC[C@@H]2c1csc(N)c1-c1nnc(S)n1-c1ccccc1` (some centres not stated), for which the inhibition in vivo at 250 mg/kg in data set [9] stood at 64.2%. For the same compound, in [10], the UI stood at 1.29. The Activity in data set [11] amounted to 96%.

For `COc1cccc2c1C(=O)c1c(O)c3c(c(O)c1C2=O)C[C@@](O)(C(=O)CO)C[C@@H]3O[C@H]1C[C@H](N)[C@H](O)[C@H](C)O1` [DOXORUBICIN], the half-maximal inhibitory concentration (IC50) in data set [18] was found to be 6.32 µM.

Consider `CC(=O)O[C@H]1C(=O)[C@@]2(C)[C@H]([C@H](OC(=O)c3ccccc3)[C@]3(O)C[C@H](OC(=O)[C@H](O)[C@@H](NC(=O)c4ccccc4)c4ccccc4)C(C)=C1C3(C)C)[C@]1(OC(C)=O)CO[C@@H]1C[C@@H]2O` [PACLITAXEL], for which the IC50 in data set [20] is 40.4 µM; in [22], 45.8 µM.

On to `Fc1cccc(CNc2nc(C(F)(F)F)nc3sc4c(c23)CCC4)c1`, for which the IC50 in [16] is 7.31 µM; in data set [17], 5.18 µM.
